Source: patent US20260062412A1, “NITROGEN-CONTAINING HETEROCYCLIC COMPOUND HAVING MYT1 INHIBITORY ACTIVITY” (CHUGAI SEIYAKU KABUSHIKI KAISHA, priority 2023, published 2026)

Key:
MYT1 protein [1] = molecular target: T1, MYT1 protein (Homo sapiens (Human), UniProt Q99640); assay: MYT1 kinase activity inhibition test (ELISA, phosphorylation of Y15 of CDK1); type: biochemical; conditions: phosphorylation level of Y15 of CDK1 protein caused by MYT1 protein, 60 minutes
Summary of the method: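 Recombinant human MYT1 (5 nM working solution) was incubated 60 min at room temperature with compound and ATP (83.3 μM working solution) on a CDK1-coated ELISA plate. CDK1 Y15 phosphorylation was detected with HRP anti-phosphotyrosine, read as A450 minus A590. Inhibition was normalised to no-compound (100%) and no-enzyme (0%) signals to derive IC50.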

MYT1 protein [2] = molecular target: T1, MYT1 protein; assay: Test for binding to ATP binding site of MYT1 (Kinase Tracer 178 / Eu-Anti-GST antibody TR-FRET); conditions: ATP binding site of MYT1, 30 minutes at room temperature
LU65 = assay: Cytotoxicity test with pemetrexed upon addition of each example compound (CellTiter-Glo); type: cell-based, human; conditions: combination with pemetrexed, LU65 cells, 7 days; maximum value, at the MYT1 inhibitor and pemetrexed concentrations
Summary of the method: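 LU65 lung cancer cells (RB1 S82* truncation, reduced RB1 function) in RPMI-1640/10% FBS were treated with pemetrexed plus each compound over concentration series, 7 days at 37 °C. ATP measured by CellTiter-Glo luminescence; survival relative to DMSO after blank subtraction, cytotoxicity = 100% minus survival.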

T1 sequence (Q99640 whole entry): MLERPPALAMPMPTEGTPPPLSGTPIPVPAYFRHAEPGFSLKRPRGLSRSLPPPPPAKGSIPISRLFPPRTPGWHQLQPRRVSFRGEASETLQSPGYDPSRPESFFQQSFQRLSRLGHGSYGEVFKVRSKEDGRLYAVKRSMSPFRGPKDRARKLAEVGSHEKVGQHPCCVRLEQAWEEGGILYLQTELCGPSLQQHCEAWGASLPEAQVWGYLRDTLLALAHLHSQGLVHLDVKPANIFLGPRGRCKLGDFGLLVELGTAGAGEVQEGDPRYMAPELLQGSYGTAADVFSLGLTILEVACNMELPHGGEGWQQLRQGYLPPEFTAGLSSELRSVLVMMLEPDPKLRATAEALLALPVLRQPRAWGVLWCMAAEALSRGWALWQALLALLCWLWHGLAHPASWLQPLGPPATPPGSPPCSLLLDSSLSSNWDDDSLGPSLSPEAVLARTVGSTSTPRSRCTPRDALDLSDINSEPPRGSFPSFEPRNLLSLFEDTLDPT

Question: How did the IC50 (MYT1 protein [1]) turn out when Nc1c(-c2ccc(F)c3[nH]ncc23)c2cc(C3CCN(C4CCOCC4)CC3)c3ncccc3c2[nH]c1=O [Compound C137, 3-Amino-4-(7-fluoro-1H-indazol-4-yl)-6-[1-(oxan-4-yl)piperidin-4-yl]-1H-1,7-phenanthrolin-2-one] was run?
Answer: The IC50 was 7.7 nM.

Question: And the IC50 (MYT1 protein [2])?
Answer: The IC50 was 4.7 nM.

Question: What about the “Bliss Score (Max)” value (LU65) of the same compound?
Answer: Its value is 45%.

Question: What about the “HSA Score (MAX)” value (LU65) of the same compound?
Answer: Its value is 56%.

Question: With CN1CCC(c2cc3c(-c4ccc(F)c5[nH]ncc45)c(N)c(=O)[nH]c3c3cccnc23)CC1 [Compound C138, 3-Amino-4-(7-fluoro-1H-indazol-4-yl)-6-(1-methylpiperidin-4-yl)-1H-1,7-phenanthrolin-2-one] as the compound, how does the IC50 (MYT1 protein [1]) read?
Answer: Its IC50 is less than 4.6 nM.

Question: And the IC50 (MYT1 protein [2])?
Answer: Its IC50 is 2 nM.

Question: And the “Bliss Score (Max)” value (LU65)?
Answer: Its value is 73%.

Question: What about the “HSA Score (MAX)” value (LU65) of the same compound?
Answer: Its value is 73%.

Question: For Nc1c(-c2ccc(F)c3[nH]ncc23)c2cc(C3CCC(=O)CC3)c3ncccc3c2[nH]c1=O [Compound C139, 3-Amino-4-(7-fluoro-1H-indazol-4-yl)-6-(4-oxocyclohexyl)-1H-1,7-phenanthrolin-2-one], which IC50 (MYT1 protein [1]) is on record?
Answer: Its IC50 is 19 nM.

Question: And the IC50 (MYT1 protein [2])?
Answer: The IC50 was 3.3 nM.

Question: And the “Bliss Score (Max)” value (LU65)?
Answer: Its value is 46%.

Question: And the “HSA Score (MAX)” value (LU65)?
Answer: The value was 54%.

Question: Which IC50 (MYT1 protein [1]) does the source give for Nc1c(-c2ccc(F)c3[nH]ncc23)c2cc([C@H]3CC[C@H](O)CC3)c3ncccc3c2[nH]c1=O [Compound C140, 3-Amino-4-(7-fluoro-1H-indazol-4-yl)-6-((1r, 4r)-4-hydroxycyclohexyl)-1H-1,7-phenanthrolin-2-one] here?
Answer: The IC50 was less than 4.6 nM.

Question: And the IC50 (MYT1 protein [2])?
Answer: Its IC50 is 1.7 nM.

Question: What about the “Bliss Score (Max)” value (LU65) of the same compound?
Answer: Its value is 73%.

Question: And the “HSA Score (MAX)” value (LU65)?
Answer: The value was 76%.

Question: For Nc1c(-c2ccc(F)c3[nH]ncc23)c2cc([C@H]3CC[C@@H](O)CC3)c3ncccc3c2[nH]c1=O [Compound C141, 3-Amino-4-(7-fluoro-1H-indazol-4-yl)-6-((1s, 4s)-4-hydroxycyclohexyl)-1H-1,7-phenanthrolin-2-one], which IC50 (MYT1 protein [1]) is on record?
Answer: Its IC50 is 11 nM.

Question: And the IC50 (MYT1 protein [2])?
Answer: Its IC50 is 4.9 nM.

Question: And the “Bliss Score (Max)” value (LU65)?
Answer: Its value is 78%.

Question: What about the “HSA Score (MAX)” value (LU65) of the same compound?
Answer: The value was 72%.

Question: Which results are given for Nc1c(-c2ccc(Cl)c3[nH]ncc23)c2cc(C3CC3)c3ncccc3c2[nH]c1=O [Compound C143, 3-Amino-4-(7-chloro-1H-indazol-4-yl)-6-cyclopropyl-1H-1,7-phenanthrolin-2-one]?
Answer: IC50 (MYT1 protein [1]): 0.2 nM; IC50 (MYT1 protein [2]): 2.7 nM; Bliss Score (Max) (LU65): 50%; HSA Score (MAX) (LU65): 67%

Question: Which results are given for Nc1c(-c2ccc(Cl)c3[nH]ncc23)c2ccc3ncccc3c2[nH]c1=O [Compound C144, 3-Amino-4-(7-chloro-1H-indazol-4-yl)-1H-1,7-phenanthrolin-2-one]?
Answer: IC50 (MYT1 protein [1]): 0.32 nM; IC50 (MYT1 protein [2]): 7 nM; Bliss Score (Max) (LU65): 39%; HSA Score (MAX) (LU65): 47%

Question: With Nc1c(-c2ccc(F)c3[nH]ncc23)c2cc(C3CCNC3)c3ncccc3c2[nH]c1=O.O=CO (stereo not drawn) [Compound C146, 3-Amino-4-(7-fluoro-1H-indazol-4-yl)-6-pyrrolidin-3-yl-1H-1,7-phenanthrolin-2-one; formate] as the compound, how does the IC50 (MYT1 protein [1]) read?
Answer: Its IC50 is 16 nM.

Question: What about the IC50 (MYT1 protein [2]) of the same compound?
Answer: The IC50 was 3.4 nM.

Question: What about the “Bliss Score (Max)” value (LU65) of the same compound?
Answer: The value was 44%.

Question: And the “HSA Score (MAX)” value (LU65)?
Answer: The value was 44%.

Question: With Cc1cc2c(-c3c(F)ccc4[nH]ncc34)c(N)c(=O)[nH]c2c2cccnc12 [Compound C155, 3-Amino-4-(5-fluoro-1H-indazol-4-yl)-6-methyl-1H-1,7-phenanthrolin-2-one] as the compound, how does the IC50 (MYT1 protein [1]) read?
Answer: Its IC50 is less than 4.6 nM.

Question: What about the IC50 (MYT1 protein [2]) of the same compound?
Answer: Its IC50 is 2.3 nM.

Question: What about the “Bliss Score (Max)” value (LU65) of the same compound?
Answer: The value was 47%.

Question: And the “HSA Score (MAX)” value (LU65)?
Answer: The value was 61%.

Question: What does the source list for Nc1c(-c2cccc3[nH]ncc23)c2cc(C3CC3)c3ncccc3c2[nH]c1=O [Compound C185, 3-Amino-6-cyclopropyl-4-(1H-indazol-4-yl)-1H-1,7-phenanthrolin-2-one]?
Answer: IC50 (MYT1 protein [1]): 0.31 nM; IC50 (MYT1 protein [2]): 2.8 nM; Bliss Score (Max) (LU65): 55%; HSA Score (MAX) (LU65): 68%

Question: How did the IC50 (MYT1 protein [1]) turn out when Cc1cc2c(-c3cc(F)c(F)c4[nH]ncc34)c(N)c(=O)[nH]c2c2cccnc12 [Compound C190, 3-amino-4-(6,7-difluoro-1H-indazol-4-yl)-6-methyl-1H-1,7-phenanthrolin-2-one] was run?
Answer: Its IC50 is 0.34 nM.

Question: What about the IC50 (MYT1 protein [2]) of the same compound?
Answer: Its IC50 is 2.5 nM.

Question: What about the “Bliss Score (Max)” value (LU65) of the same compound?
Answer: The value was 48%.

Question: What about the “HSA Score (MAX)” value (LU65) of the same compound?
Answer: The value was 66%.

Question: With Nc1c(-c2cc(F)c(Cl)c3[nH]ncc23)c2cc(C3CC3)c3ncccc3c2[nH]c1=O [Compound C195, 3-Amino-4-(7-chloro-6-fluoro-1H-indazol-4-yl)-6-cyclopropyl-1H-1,7-phenanthrolin-2-one] as the compound, how does the IC50 (MYT1 protein [1]) read?
Answer: The IC50 was 0.24 nM.

Question: And the IC50 (MYT1 protein [2])?
Answer: The IC50 was 2.3 nM.

Question: And the “Bliss Score (Max)” value (LU65)?
Answer: Its value is 52%.

Question: What about the “HSA Score (MAX)” value (LU65) of the same compound?
Answer: The value was 65%.

Question: Which IC50 (MYT1 protein [1]) does the source give for CC(=O)c1cc2c(-c3ccc(F)c4[nH]ncc34)c(N)c(=O)[nH]c2c2cccnc12 [Compound C200, 6-Acetyl-3-amino-4-(7-fluoro-1H-indazol-4-yl)-1H-1,7-phenanthrolin-2-one] here?
Answer: The IC50 was 7 nM.

Question: What about the IC50 (MYT1 protein [2]) of the same compound?
Answer: The IC50 was 2.4 nM.

Question: And the “Bliss Score (Max)” value (LU65)?
Answer: Its value is 44%.

Question: What about the “HSA Score (MAX)” value (LU65) of the same compound?
Answer: The value was 56%.

Question: Which IC50 (MYT1 protein [1]) does the source give for Nc1c(-c2ccc(F)c3[nH]ncc23)c2cc(C3CC3)c3cccnc3c2[nH]c1=O [Compound D2, 3-Amino-6-cyclopropyl-4-(7-fluoro-1H-indazol-4-yl)-1H-1,10-phenanthrolin-2-one] here?
Answer: Its IC50 is 15 nM.

Question: And the IC50 (MYT1 protein [2])?
Answer: The IC50 was 4 nM.

Question: What about the “Bliss Score (Max)” value (LU65) of the same compound?
Answer: Its value is 42%.

Question: And the “HSA Score (MAX)” value (LU65)?
Answer: The value was 51%.

Question: Nc1c(-c2ccc(F)c3[nH]ncc23)c2cc(O[C@H]3C[C@H](F)C3)c3nccnc3c2[nH]c1=O [Compound G16, 8-Amino-5-((1,3r)-3-fluorocyclobutyl)oxy-7-(7-fluoro-1H-indazol-4-yl)-10H-pyrido[2,3-f]quinoxalin-9-one] was tested. Which IC50 (MYT1 protein [1]) did it give?
Answer: Its IC50 is 0.086 nM.

Question: What about the IC50 (MYT1 protein [2]) of the same compound?
Answer: The IC50 was 0.91 nM.

Question: What about the “Bliss Score (Max)” value (LU65) of the same compound?
Answer: Its value is 50%.

Question: And the “HSA Score (MAX)” value (LU65)?
Answer: The value was 58%.

Question: Nc1c(-c2cccc3[nH]ncc23)c2cc(C3CC3)c3cnccc3c2[nH]c1=O [Compound P1, 3-Amino-6-cyclopropyl-4-(1H-indazol-4-yl)-1H-1,8-phenanthrolin-2-one] was tested. Which IC50 (MYT1 protein [1]) did it give?
Answer: The IC50 was 0.22 nM.

Question: And the IC50 (MYT1 protein [2])?
Answer: Its IC50 is 1.8 nM.

Question: And the “Bliss Score (Max)” value (LU65)?
Answer: Its value is 49%.

Question: What about the “HSA Score (MAX)” value (LU65) of the same compound?
Answer: The value was 55%.

Question: What does the source list for Nc1c(-c2ccc(F)c3[nH]ncc23)c2cc(C3CC3)c3cnccc3c2[nH]c1=O.O=C(O)C(F)(F)F [Compound P4, 3-Amino-6-cyclopropyl-4-(7-fluoro-1H-indazol-4-yl)-1H-1,8-phenanthrolin-2-one 2,2,2-trifluoroacetate]?
Answer: IC50 (MYT1 protein [1]): 5.9 nM; IC50 (MYT1 protein [2]): 6.1 nM; Bliss Score (Max) (LU65): 56%; HSA Score (MAX) (LU65): 67%

Question: Nc1c(-c2cccc3[nH]ncc23)c2cc(C3CC3)c3ccncc3c2[nH]c1=O [Compound Q1, 3-Amino-6-cyclopropyl-4-(1H-indazol-4-yl)-1H-1,9-phenanthrolin-2-one] was tested. Which IC50 (MYT1 protein [1]) did it give?
Answer: The IC50 was 0.83 nM.

Question: What about the IC50 (MYT1 protein [2]) of the same compound?
Answer: The IC50 was 9.3 nM.

Question: What about the “Bliss Score (Max)” value (LU65) of the same compound?
Answer: The value was 52%.

Question: And the “HSA Score (MAX)” value (LU65)?
Answer: The value was 58%.
